Reference: patent US9375443B2 (Signal Pharmaceuticals, LLC, priority 2012, dated 2016)
Read-outs that look alike come from different tables or passages of the source. Each block holds one compound with its values, some of them ahead of it.

Columns and labels:
HCC15 = assay: Proliferation Assays (NSCLC cell line sensitivity); assay type: cell-based; details: SQC, KRAS WT, EGFR WT
H2009 = assay: Proliferation Assays (NSCLC cell line sensitivity); assay type: cell-based; details: KRAS MUT, EGFR WT
A549 = assay: Proliferation Assays (NSCLC cell line sensitivity); assay type: cell-based
[1] = test system: panel of NSCLC cell lines; assay: Proliferation Assays, panel of NSCLC cell lines; assay type: cell-based; details: various degrees of sensitivity
Calu-3 = assay: Proliferation Assays (NSCLC cell line sensitivity); assay type: cell-based; details: ACA, KRAS WT, EGFR wt (HER2+)
H3255 = assay: Proliferation Assays (NSCLC cell line sensitivity); assay type: cell-based; details: EGFR L858R
H1650 = assay: Proliferation Assays (NSCLC cell line sensitivity); assay type: cell-based; details: KRAS WT, EGFR E746 A750del (exon19)
H1975 = assay: Proliferation Assays (NSCLC cell line sensitivity); assay type: cell-based; details: ACA, KRAS WT, EGFR L858R, T790M
H460 = assay: Proliferation Assays (NSCLC cell line sensitivity); assay type: cell-based
HCC95 = assay: Proliferation Assays (NSCLC cell line sensitivity); assay type: cell-based; details: SQC, KRAS WT, EGFR WT
H1703 = assay: Proliferation Assays (NSCLC cell line sensitivity); assay type: cell-based; details: KRAS WT, EGFR WT
H226 = assay: Proliferation Assays (NSCLC cell line sensitivity); assay type: cell-based; details: KRAS WT, EGFR WT
H2126 = assay: Proliferation Assays (NSCLC cell line sensitivity); assay type: cell-based
NCI-H23 = assay: Proliferation Assays (NSCLC cell line sensitivity); assay type: cell-based
H157 = assay: Proliferation Assays (NSCLC cell line sensitivity); assay type: cell-based
H441 = assay: Proliferation Assays (NSCLC cell line sensitivity); assay type: cell-based; details: BAC, KRAS MUT, EGFR WT
H520 = assay: Proliferation Assays (NSCLC cell line sensitivity); assay type: cell-based; details: KRAS WT, EGFR WT
H1299 = assay: Proliferation Assays (NSCLC cell line sensitivity); assay type: cell-based; details: KRAS WT, EGFR WT
H2122 = assay: Proliferation Assays (NSCLC cell line sensitivity); assay type: cell-based; details: KRAS MUT, EGFR WT
H1975 xenografts = assay: H1975 xenograft in nude mice; assay type: in vivo, athymic nude mice; details: erlotinib 40 mg/kg 3× per week oral gavage, Compound 1 5 mg/kg/daily oral gavage, day 17 to day 30
Source text: (§1) A549 adenocarcinoma or H1975 cells in single cell suspension were implanted into the posterior flanks of athymic nude mice. […] For the A549 xenograft, the treatments were started on Day 26 after implantation and were stopped on day 53, while for the H1975 xenograft, the treatments were started on day 17 after implantation and were stopped on day 30.

A549 xenografts = assay: A549 xenograft in nude mice; assay type: in vivo, athymic nude mice; details: erlotinib 40 mg/kg 3× per week oral gavage, Compound 1 5 mg/kg/daily oral gavage, Day 26 to day 53
Source text: as §1

- IC50 (HCC15): 6.37 µM
- IC50 (H2009; ACA): 5.05 µM
- IC50 (A549; A549, ACA, KRAS MUT G125, EGFR WT, read-out: IC50): 0.58 µM
- IC50 (Calu-3): 0.184 µM
- IC50 (H3255; ACA): 11.9 µM
- IC50 (H1650; ACA): 5.2 µM
- IC50 (H1975): 0.25 µM
- IC50 (H460; H460, LCC, KRAS MUT G61H, EGFR WT, read-out: IC50): 0.153 µM
- IC50 (HCC95): 0.724 µM
- IC50 (H1703; SCC): 1.64 µM
- IC50 (H226; SQC): 1.98 µM
- IC50 (H2126; H2126, ACA, KRAS WT, EGFR WT, read-out: IC50): 0.214 µM
- IC50 (NCI-H23; NCI-H23, ACA, KRAS MUT 12 mutation G12C, read-out: IC50): 3 µM
- IC50 (H157; H157, SQC, KRAS MUT, EGFR WT): 2.61 µM
- IC50 (H441; ACA): 0.392 µM
- IC50 (H520; SQC): 0.374 µM
- IC50 (H1299; Large Cell Neuroendocrin): 3.09 µM
- IC50 (H2122; ACA): 1.59 µM
Compound: CO[C@H]1CC[C@H](N2C(=O)CNc3ncc(-c4ccc(C(C)(C)O)nc4)nc32)CC1 [Compound 1, 7-(6-(2-hydroxypropan-2-yl)pyridin-3-yl)-1-((1r,4r)-4-methoxycyclohexyl)-3,4-dihydropyrazino-[2,3-b]pyrazin-2(1H)-one]
- anti-proliferative activity [1]: demonstrated anti-proliferative activity

- IC50 (HCC15): > 10 µM
- IC50 (H2009; Homo sapiens, NCI-H2009, ACA): 15.3 µM
- IC50 (A549; Homo sapiens, A549, read-out: IC50 (value in parentheses beside > 10 μM)): 25.2 µM
- IC50 (A549; Homo sapiens, A549, ACA, KRAS MUT G125, EGFR WT, read-out: IC50): > 10 µM
- IC50 (Calu-3; Homo sapiens): 7.09 µM
- IC50 (H3255; Homo sapiens, NCI-H3255, ACA): 0.205 µM
- IC50 (H1650; Homo sapiens, NCI-H1650, ACA): 2.84 µM
- IC50 (H460; Homo sapiens, NCI-H460, read-out: IC50 (value in parentheses beside > 10 μM)): 18 µM
- IC50 (H460; Homo sapiens, NCI-H460, H460, LCC, KRAS MUT G61H, EGFR WT, read-out: IC50): > 10 µM
- IC50 (HCC95; Homo sapiens): 6.45 µM
- IC50 (H1703; Homo sapiens, NCI-H1703, SCC): > 10 µM
- IC50 (H226; Homo sapiens, NCI-H226, SQC): > 10 µM
- IC50 (H2126; Homo sapiens, NCI-H2126, read-out: IC50 (value in parentheses beside > 10 μM)): 19.8 µM
- IC50 (H2126; Homo sapiens, NCI-H2126, H2126, ACA, KRAS WT, EGFR WT, read-out: IC50): > 10 µM
- IC50 (NCI-H23; Homo sapiens, NCI-H23, read-out: IC50 (value in parentheses beside > 10 μM)): 22.8 µM
- IC50 (NCI-H23; Homo sapiens, NCI-H23, ACA, KRAS MUT 12 mutation G12C, read-out: IC50): > 10 µM
- IC50 (H157; Homo sapiens, NCI-H157): > 10 µM
- IC50 (H441; Homo sapiens, NCI-H441, ACA): > 10 µM
- IC50 (H520; Homo sapiens, NCI-H520, SQC): > 10 µM
- IC50 (H1299; Homo sapiens, NCI-H1299, Large Cell Neuroendocrin): > 10 µM
- IC50 (H2122; Homo sapiens, NCI-H2122, ACA): > 10 µM
Compound: C#Cc1cccc(Nc2ncnc3cc(OCCOC)c(OCCOC)cc23)c1 [Erlotinib, erlotinib]
- anti-proliferative activity [1]: demonstrated anti-proliferative activity
- tumor growth during treatment (H1975 xenografts): moderately sensitive
- tumor growth during treatment (A549 xenografts): resistant
